In ChEMBL document CHEMBL3886525, “Pyrazolo[3,4-c]pyridine compounds and methods of use” (2016):

Molecular target: Serine/threonine-protein kinase pim-1 (Homo sapiens, UniProt P11309)
Assay: A fluorescent-labeled Pim-specific peptide substrate, was custom synthesized by American Peptide Company (Sunnyvale, Calif.). Reaction Buffer contained 10 mM HEPES, pH 7.2, 10 mM MgCl2, 0.01% Tween 20, 2 mM DTT.

Sequence of Serine/threonine-protein kinase pim-1 (P11309 whole entry): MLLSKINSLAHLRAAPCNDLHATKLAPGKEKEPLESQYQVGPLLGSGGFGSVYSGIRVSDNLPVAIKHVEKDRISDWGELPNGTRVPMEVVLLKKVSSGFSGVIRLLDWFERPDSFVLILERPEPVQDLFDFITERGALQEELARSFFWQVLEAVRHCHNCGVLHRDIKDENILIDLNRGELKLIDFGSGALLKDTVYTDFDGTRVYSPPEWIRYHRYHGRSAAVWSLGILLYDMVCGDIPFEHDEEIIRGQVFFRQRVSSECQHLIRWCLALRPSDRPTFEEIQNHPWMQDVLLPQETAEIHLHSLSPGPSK

| SMILES | Ki |
| --- | --- |
| c1cncc(-c2cc3c(-c4cccc(N5CCOCC5)n4)n[nH]c3cn2)c1 | 0.262 nM |
| Cc1n[nH]c2cnc(-c3cccc(F)c3)cc12 | 2200 nM |
| Fc1ccccc1-c1n[nH]c2cnc(-c3cccnc3)cc12 | 122 nM |
| c1cncc(-c2cc3c(-c4cccc(N5CCCCC5)n4)n[nH]c3cn2)c1 | 0.415 nM |
| CCn1cc(-c2cc3c(-c4ccc(=O)n(CC5(C(N)=O)CC5)c4)n[nH]c3cn2)cn1 | 1.41 nM |
| c1ccc(-c2n[nH]c3cnc(-c4cccnc4)cc23)cc1 | 9.65 nM |
| N[C@@H]1CCN(c2nc(-c3n[nH]c4cnc(-c5cccnc5)cc34)ccc2Br)C1 | 0.118 nM |
